Legend:
Assay in all cases: relative viability (nuclei count vs DMSO), 5 days (fraction); higher = more cells survive
CAL-12T = tested on: CAL-12T
Method in brief: (§1)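 Relative viability divides the nuclei count in treated wells by that in vehicle wells. Lung cancer cell lines were seeded in 1536-well plates, dosed by pin tool the next day, and fixed and stained after 5 days in one step with final 0.05% Triton X-100, 1% formaldehyde and 1 ug/ml Hoechst. Dosing was a single drug or a fixed anchor-drug dose plus five library-drug doses (not always all listed) in √10 steps, and values are medians of duplicate plates imaged at 4×.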

EKVX = tested on: EKVX
Method in brief: as §1

H3255 = tested on: H3255
Method in brief: as §1

HCC-15 = tested on: HCC-15
Method in brief: as §1

HCC-827 = tested on: HCC-827
Method in brief: as §1

LCLC-97TM1 = tested on: LCLC-97TM1
Method in brief: as §1

LK-2 = tested on: LK-2
Method in brief: as §1

NCI-H1355 = tested on: NCI-H1355
Method in brief: as §1

NCI-H1563 = tested on: NCI-H1563
Method in brief: as §1

NCI-H1650 = tested on: NCI-H1650
Method in brief: as §1

NCI-H1734 = tested on: NCI-H1734
Method in brief: as §1

NCI-H1755 = tested on: NCI-H1755
Method in brief: as §1

NCI-H1975 = tested on: NCI-H1975
Method in brief: as §1

NCI-H2228 = tested on: NCI-H2228
Method in brief: as §1

NCI-H2342 = tested on: NCI-H2342
Method in brief: as §1

NCI-H2405 = tested on: NCI-H2405
Method in brief: as §1

NCI-H322M = tested on: NCI-H322M
Method in brief: as §1

NCI-H520 = tested on: NCI-H520
Method in brief: as §1

NCI-H661 = tested on: NCI-H661
Method in brief: as §1

PC-14 = tested on: PC-14
Method in brief: as §1

PC-3 [JPC-3] = tested on: PC-3 [JPC-3]
Method in brief: as §1

RERF-LC-KJ = tested on: RERF-LC-KJ
Method in brief: as §1

## Cc1sc2c(c1C)C(c1ccc(Cl)cc1)=N[C@@H](CC(=O)OC(C)(C)C)c1nnc(C)n1-2 [JQ1] + COc1cccc2cc(-c3nc([C@H]4CC[C@H](C(=O)O)CC4)n4ncnc(N)c34)[nH]c12 [OSI-027] (partner 0.5 µM)
CAL-12T; first compound 0.04 µM
  relative viability: 0.618
CAL-12T; first compound 0.1265 µM
  relative viability: 0.586
CAL-12T; first compound 0.4 µM
  relative viability: 0.32
CAL-12T; first compound 1.265 µM
  relative viability: 0.192
CAL-12T; first compound 4 µM
  relative viability: 0.173
EKVX; first compound 0.04 µM
  relative viability: 0.698
EKVX; first compound 0.1265 µM
  relative viability: 0.587
EKVX; first compound 0.4 µM
  relative viability: 0.722
EKVX; first compound 1.265 µM
  relative viability: 0.571
EKVX; first compound 4 µM
  relative viability: 0.488
H3255; first compound 0.04 µM
  relative viability: 0.532
H3255; first compound 0.1265 µM
  relative viability: 0.672
H3255; first compound 0.4 µM
  relative viability: 0.629
H3255; first compound 1.265 µM
  relative viability: 0.438
H3255; first compound 4 µM
  relative viability: 0.444
HCC-15; first compound 0.04 µM
  relative viability: 0.693
HCC-15; first compound 0.4 µM
  relative viability: 0.593
HCC-15; first compound 1.265 µM
  relative viability: 0.347
HCC-15; first compound 4 µM
  relative viability: 0.315
HCC-827; first compound 0.04 µM
  relative viability: 0.704
HCC-827; first compound 0.4 µM
  relative viability: 0.532
HCC-827; first compound 1.265 µM
  relative viability: 0.866
HCC-827; first compound 4 µM
  relative viability: 0.738
LCLC-97TM1; first compound 0.04 µM
  relative viability: 0.476
LCLC-97TM1; first compound 0.1265 µM
  relative viability: 0.674
LCLC-97TM1; first compound 0.4 µM
  relative viability: 0.594
LCLC-97TM1; first compound 1.265 µM
  relative viability: 0.4
LCLC-97TM1; first compound 4 µM
  relative viability: 0.199
LK-2; first compound 0.04 µM
  relative viability: 0.204
LK-2; first compound 0.1265 µM
  relative viability: 0.21
LK-2; first compound 0.4 µM
  relative viability: 0.188
LK-2; first compound 1.265 µM
  relative viability: 0.122
LK-2; first compound 4 µM
  relative viability: 0.143
NCI-H1355; first compound 0.04 µM
  relative viability: 0.429
NCI-H1355; first compound 0.1265 µM
  relative viability: 0.374
NCI-H1355; first compound 0.4 µM
  relative viability: 0.42
NCI-H1355; first compound 1.265 µM
  relative viability: 0.25
NCI-H1355; first compound 4 µM
  relative viability: 0.253
NCI-H1563; first compound 0.04 µM
  relative viability: 0.735
NCI-H1563; first compound 0.1265 µM
  relative viability: 0.704
NCI-H1563; first compound 0.4 µM
  relative viability: 0.605
NCI-H1563; first compound 1.265 µM
  relative viability: 0.552
NCI-H1563; first compound 4 µM
  relative viability: 0.545
NCI-H1650; first compound 0.04 µM
  relative viability: 0.51
NCI-H1650; first compound 0.1265 µM
  relative viability: 0.447
NCI-H1650; first compound 0.4 µM
  relative viability: 0.328
NCI-H1650; first compound 1.265 µM
  relative viability: 0.153
NCI-H1650; first compound 4 µM
  relative viability: 0.206
NCI-H1734; first compound 0.04 µM
  relative viability: 0.619
NCI-H1734; first compound 0.1265 µM
  relative viability: 0.508
NCI-H1734; first compound 0.4 µM
  relative viability: 0.601
NCI-H1734; first compound 1.265 µM
  relative viability: 0.354
NCI-H1734; first compound 4 µM
  relative viability: 0.413
NCI-H1755; first compound 0.04 µM
  relative viability: 0.758
NCI-H1755; first compound 0.1265 µM
  relative viability: 0.68
NCI-H1755; first compound 0.4 µM
  relative viability: 0.668
NCI-H1755; first compound 1.265 µM
  relative viability: 0.527
NCI-H1755; first compound 4 µM
  relative viability: 0.39
NCI-H1975; first compound 0.04 µM
  relative viability: 0.708
NCI-H1975; first compound 0.1265 µM
  relative viability: 0.527
NCI-H1975; first compound 0.4 µM
  relative viability: 0.62
NCI-H1975; first compound 1.265 µM
  relative viability: 0.437
NCI-H1975; first compound 4 µM
  relative viability: 0.393
NCI-H2228; first compound 0.04 µM
  relative viability: 0.731
NCI-H2228; first compound 0.1265 µM
  relative viability: 0.657
NCI-H2228; first compound 0.4 µM
  relative viability: 0.466
NCI-H2228; first compound 1.265 µM
  relative viability: 0.257
NCI-H2228; first compound 4 µM
  relative viability: 0.296
NCI-H2342; first compound 0.04 µM
  relative viability: 0.695
NCI-H2342; first compound 0.1265 µM
  relative viability: 0.605
NCI-H2342; first compound 0.4 µM
  relative viability: 0.702
NCI-H2342; first compound 1.265 µM
  relative viability: 0.681
NCI-H2342; first compound 4 µM
  relative viability: 0.52
NCI-H2405; first compound 0.04 µM
  relative viability: 0.651
NCI-H2405; first compound 0.1265 µM
  relative viability: 0.632
NCI-H2405; first compound 0.4 µM
  relative viability: 0.696
NCI-H2405; first compound 1.265 µM
  relative viability: 0.58
NCI-H2405; first compound 4 µM
  relative viability: 0.582
NCI-H322M; first compound 0.04 µM
  relative viability: 0.518
NCI-H322M; first compound 0.1265 µM
  relative viability: 0.589
NCI-H322M; first compound 0.4 µM
  relative viability: 0.477
NCI-H322M; first compound 1.265 µM
  relative viability: 0.321
NCI-H322M; first compound 4 µM
  relative viability: 0.339
NCI-H520; first compound 0.04 µM
  relative viability: 0.211
NCI-H520; first compound 0.1265 µM
  relative viability: 0.325
NCI-H520; first compound 0.4 µM
  relative viability: 0.201
NCI-H520; first compound 1.265 µM
  relative viability: 0.217
NCI-H520; first compound 4 µM
  relative viability: 0.208
NCI-H661; first compound 0.04 µM
  relative viability: 0.714
NCI-H661; first compound 0.1265 µM
  relative viability: 0.517
NCI-H661; first compound 0.4 µM
  relative viability: 0.603
NCI-H661; first compound 1.265 µM
  relative viability: 0.423
NCI-H661; first compound 4 µM
  relative viability: 0.453
PC-14; first compound 0.04 µM
  relative viability: 0.713
PC-14; first compound 0.1265 µM
  relative viability: 0.638
PC-14; first compound 0.4 µM
  relative viability: 0.514
PC-14; first compound 1.265 µM
  relative viability: 0.311
PC-14; first compound 4 µM
  relative viability: 0.343
PC-3 [JPC-3]; first compound 0.04 µM
  relative viability: 0.771
PC-3 [JPC-3]; first compound 0.1265 µM
  relative viability: 0.823
PC-3 [JPC-3]; first compound 0.4 µM
  relative viability: 0.739
PC-3 [JPC-3]; first compound 1.265 µM
  relative viability: 0.653
PC-3 [JPC-3]; first compound 4 µM
  relative viability: 0.445
RERF-LC-KJ; first compound 0.04 µM
  relative viability: 0.634
RERF-LC-KJ; first compound 0.1265 µM
  relative viability: 0.518
RERF-LC-KJ; first compound 0.4 µM
  relative viability: 0.531
RERF-LC-KJ; first compound 1.265 µM
  relative viability: 0.335
RERF-LC-KJ; first compound 4 µM
  relative viability: 0.338
